Assays:
[1] = target: T1, STAT6 (Homo sapiens, UniProt P42226); experiment: Stat6 Degrader Assay (HiBiT based, HeLa LgBiT clone 4.14); assay type: cell-based; conditions: HeLa LgBiT clone 4.14 HiBiT-STAT6, 4-24 h incubation; values given for compounds with >80% Emax; geometric mean; read-out: STAT6 degradation DC50
T1 construct: These cells express endogenous STAT6; host or cells: HeLa LgBiT clone 4.14
T1 sequence (P42226 1-847): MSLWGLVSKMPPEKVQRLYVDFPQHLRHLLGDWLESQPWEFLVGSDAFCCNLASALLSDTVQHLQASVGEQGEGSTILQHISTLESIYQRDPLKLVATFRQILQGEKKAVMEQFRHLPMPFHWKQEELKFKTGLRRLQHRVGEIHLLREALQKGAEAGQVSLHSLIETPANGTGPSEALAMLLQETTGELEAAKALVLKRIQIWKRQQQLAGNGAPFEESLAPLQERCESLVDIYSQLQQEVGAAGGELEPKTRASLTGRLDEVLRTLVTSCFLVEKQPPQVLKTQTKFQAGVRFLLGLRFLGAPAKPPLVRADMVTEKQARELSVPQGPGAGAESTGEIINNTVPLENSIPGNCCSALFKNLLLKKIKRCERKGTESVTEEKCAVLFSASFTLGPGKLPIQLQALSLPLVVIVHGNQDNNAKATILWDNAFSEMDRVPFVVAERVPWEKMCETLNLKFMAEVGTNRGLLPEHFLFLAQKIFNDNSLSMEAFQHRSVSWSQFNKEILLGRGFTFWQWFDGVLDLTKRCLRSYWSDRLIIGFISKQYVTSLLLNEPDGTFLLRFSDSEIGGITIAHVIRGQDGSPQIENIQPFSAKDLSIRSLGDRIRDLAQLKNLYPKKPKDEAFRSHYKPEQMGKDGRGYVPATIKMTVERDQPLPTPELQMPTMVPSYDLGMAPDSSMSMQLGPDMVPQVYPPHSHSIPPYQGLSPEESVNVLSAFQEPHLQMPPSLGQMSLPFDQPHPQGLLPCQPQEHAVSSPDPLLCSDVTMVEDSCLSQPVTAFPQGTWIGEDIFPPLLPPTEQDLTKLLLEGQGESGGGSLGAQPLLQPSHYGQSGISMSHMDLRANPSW
Outline: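 Luminescence from HiBiT-STAT6 complementing stably expressed LgBiT in HeLa clone 4.14 reports remaining STAT6 protein. Cells (5000/well) exposed to compound for 4-24 h at 37° C; read 0.5 h after Nano-Glo addition. 100% degradation window set with 50 μM terfenadine; percent degradation plotted against concentration.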

[2] = test system: Eotaxin-3 release in human whole blood stimulated with IL-4; experiment: Human Whole Blood Eotaxin-3 Assay (IL-4 stimulated eotaxin-3 release); assay type: cell-based; conditions: IL-4 stimulation, 48 h, values given for compounds with >80% Emax, geometric mean
Outline: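 Eotaxin-3 (CCL26) release measured by MSD kit in plasma supernatant after 48 h IL-4 stimulation ([…]) of human whole blood. Compounds added in triplicate 4-fold dilutions 2 h before stimulation; 0.5% DMSO final, 37° C, 5% CO2.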

Row | SMILES | DC50 [1] [nM] | EC50 [2] [nM]
1 | CNc1cc(=O)n(-c2ccnc3c2cc([C@H](C)N2CC=C(c4c(C)cc(C(=O)N5CCC(CN6CCN(Cc7cc8c(cc7F)N(C7CCC(=O)NC7=O)C(=O)C87CC7)CC6)CC5)cc4F)CC2)n3C)cc1F (stereo partly drawn) [Example 3u152, 3-(6′-fluoro-5′-((4-((1-(3-fluoro-4-(1-((S)-1-(4-(5-fluoro-4-(methylamino)-2-oxopyridin-1 (2H)-yl)-1-methyl-1H-pyrrolo[2,3-b]pyridin-2-yl)ethyl)-1,2,3,6-tetrahydropyridin-4-yl)-5-methylbenzoyl)piperidin-4-yl)methyl)piperazin-1-yl)methyl)-2′-oxospiro[cyclopropane-1,3′-indolin]-1′-yl)piperidine-2,6-dione] | 6.6 | 13.2
2 | CNc1ccn(-c2ccnc3c2cc([C@H](C)N2CC=C(c4c(C)cc(C(=O)N5CCC(CN6CCN(Cc7ccc8c(c7)n(C)c(=O)n8C7CCC(=O)NC7=O)CC6)CC5)cc4F)CC2)n3C)c(=O)c1 (stereo partly drawn) [Example 3u155, 3-(5-((4-((1-(3-fluoro-5-methyl-4-(1-((S)-1-(1-methyl-4-(4-(methylamino)-2-oxopyridin-1 (2H)-yl)-1H-pyrrolo[2,3-b]pyridin-2-yl)ethyl)-1,2,3,6-tetrahydropyridin-4-yl)benzoyl)piperidin-4-yl)methyl)piperazin-1-yl)methyl)-3-methyl-2-oxo-2,3-dihydro-1H-benzo[d]imidazol-1-yl)piperidine-2,6-dione] | 0.3 | 0.5
3 | CNc1cc(=O)n(-c2ccnc3c2cc([C@H](C)N2CC=C(c4c(C)cc(C(=O)N5CCC(CN6CCN(Cc7ccc8c(c7)C7(CC7)C(=O)N8C7CCC(=O)NC7=O)C[C@@H]6C)CC5)cc4F)CC2)n3C)cc1F (stereo partly drawn) [Example 3u164, 3-(5′-(((S)-4-((1-(3-fluoro-4-(1-((S)-1-(4-(5-fluoro-4-(methylamino)-2-oxopyridin-1 (2H)-yl)-1-methyl-1H-pyrrolo[2,3-b]pyridin-2-yl)ethyl)-1,2,3,6-tetrahydropyridin-4-yl)-5-methyl-benzoyl)piperidin-4-yl)methyl)-3-methylpiperazin-1-yl)methyl)-2′-oxospiro[cyclopropane-1,3′-indolin]-1′-yl)piperidine-2,6-dione] | 1 | 2
4 | CNc1ccn(-c2ccnc3c2cc(CN2CC=C(c4c(C)cc(C(=O)N5CCC(CN6CCN(Cc7ccc8c(c7)C(C)(C)C(=O)N8C7CCC(=O)NC7=O)C[C@@H]6C)CC5)cc4F)CC2)n3C)c(=O)c1 (stereo partly drawn) [Example 3u178, 3-(5-(((S)-4-((1-(3-fluoro-5-methyl-4-(1-((1-methyl-4-(4-(methylamino)-2-oxopyridin-1 (2H)-yl)-1H-pyrrolo[2,3-b]pyridin-2-yl)methyl)-1,2,3,6-tetrahydropyridin-4-yl)benzoyl)piperidin-4-yl)methyl)-3-methylpiperazin-1-yl)methyl)-3,3-dimethyl-2-oxoindolin-1-yl)piperidine-2,6-dione] | 5.6 | 7.7
5 | C[C@H]1CN(Cc2ccc3c(c2)C(C)(C)C(=O)N3C2CCC(=O)NC2=O)CCN1CC1CCN(C(=O)c2ccc(C3CCN([C@@H](C)c4cc5c(-n6ccc7c(c6=O)CCN7)ccnc5n4C)CC3)cc2)CC1 (stereo partly drawn) [Example 3u184, 3-(3,3-dimethyl-5-(((S)-3-methyl-4-((1-(4-(1-((S)-1-(1-methyl-4-(4-oxo-1,2,3,4-tetrahydro-5H-pyrrolo[3,2-c]pyridin-5-yl)-1H-pyrrolo[2,3-b]pyridin-2-yl)ethyl)piperidin-4-yl)benzoyl)-piperidin-4-yl)methyl)piperazin-1-yl)methyl)-2-oxoindolin-1-yl)piperidine-2,6-dione] | 2.4 | 7
6 | CNc1ccn(-c2ccnc3c2cc([C@H](C)N2CCC(c4ccc(C(=O)N5CCC(CN6CCN(Cc7ccc8c(c7)C(C)(C)C(=O)N8C7CCC(=O)NC7=O)C[C@@H]6C)CC5)cc4)CC2)n3C)c(=O)c1 (stereo partly drawn) [Example 3u187, 3-(3,3-dimethyl-5-(((S)-3-methyl-4-((1-(4-(1-((S)-1-(1-methyl-4-(4-(methylamino)-2-oxopyridin-1 (2H)-yl)-1H-pyrrolo[2,3-b]pyridin-2-yl)ethyl)piperidin-4-yl)benzoyl)piperidin-4-yl)-methyl)piperazin-1-yl)methyl)-2-oxoindolin-1-yl)piperidine-2,6-dione] | 3.1 | 4.2

Further lines, results first:

Row | DC50 [1] [nM] | EC50 [2] [nM] | SMILES
7 | 1.1 | 1.3 | CNc1ccn(-c2ccnc3c2cc([C@H](C)N2CC=C(c4c(C)cc(C(=O)N5CCC(CN6CCN(Cc7cc8c(cc7F)n(C7CCC(=O)NC7=O)c(=O)n8C7CC7)C[C@@H]6C)CC5)cc4F)CC2)n3C)c(=O)c1 (stereo partly drawn) [Example 3u166, 3-(3-cyclopropyl-6-fluoro-5-(((S)-4-((1-(3-fluoro-5-methyl-4-(1-((S)-1-(1-methyl-4-(4-(methylamino)-2-oxopyridin-1 (2H)-yl)-1H-pyrrolo[2,3-b]pyridin-2-yl)ethyl)-1,2,3,6-tetrahydropyridin-4-yl)benzoyl)piperidin-4-yl)methyl)-3-methylpiperazin-1-yl)methyl)-2-oxo-2,3-dihydro-1H-benzo[d]imidazol-1-yl)piperidine-2,6-dione]
8 | 4.1 | 14.6 | Cc1cc(C(=O)N2CCC(CN3CCN(Cc4ccc5c(c4)C(C)(C)C(=O)N5C4CCC(=O)NC4=O)C[C@@H]3C)CC2)cc(F)c1C1=CCN([C@@H](C)c2cc3c(-n4cc(F)c(N)cc4=O)ccnc3n2C)CC1 (stereo partly drawn) [Example 3u169, 3-(5-(((S)-4-((1-(4-(1-((S)-1-(4-(4-amino-5-fluoro-2-oxopyridin-1 (2H)-yl)-1-methyl-1H-pyrrolo[2,3-b]pyridin-2-yl)ethyl)-1,2,3,6-tetrahydropyridin-4-yl)-3-fluoro-5-methylbenzoyl)piperidin-4-yl)methyl)-3-methylpiperazin-1-yl)methyl)-3,3-dimethyl-2-oxoindolin-1-yl)piperidine-2,6-dione]
9 | 2.9 | 13.2 | CNc1cc(=O)n(-c2ccnc3c2cc([C@H](C)N2CC=C(c4c(C)cc(C(=O)N5CCC(CN6CCN(Cc7ccc8c(c7)C(C)(C)C(=O)N8C7CCC(=O)NC7=O)C[C@@H]6C)CC5)cc4F)CC2)n3C)cc1F (stereo partly drawn) [Example 3u172, 3-(5-(((S)-4-((1-(3-fluoro-4-(1-((S)-1-(4-(5-fluoro-4-(methylamino)-2-oxopyridin-1 (2H)-yl)-1-methyl-1H-pyrrolo[2,3-b]pyridin-2-yl)ethyl)-1,2,3,6-tetrahydropyridin-4-yl)-5-methylbenzoyl)piperidin-4-yl)methyl)-3-methylpiperazin-1-yl)methyl)-3,3-dimethyl-2-oxoindolin-1-yl)piperidine-2,6-dione]
10 | 1.3 | 3.8 | CNc1ccn(-c2ccnc3c2cc([C@H](C)N2CC=C(c4c(C)cc(C(=O)N5CCC(CN6CCN(Cc7ccc8c(c7)C(C)(C)C(=O)N8C7CCC(=O)NC7=O)C[C@@H]6C)CC5)cc4F)CC2)n3C)c(=O)c1 (stereo partly drawn) [Example 3u175, 3-(5-(((S)-4-((1-(3-fluoro-5-methyl-4-(1-((S)-1-(1-methyl-4-(4-(methylamino)-2-oxopyridin-1 (2H)-yl)-1H-pyrrolo[2,3-b]pyridin-2-yl)ethyl)-1,2,3,6-tetrahydropyridin-4-yl)benzoyl)-piperidin-4-yl)methyl)-3-methylpiperazin-1-yl)methyl)-3,3-dimethyl-2-oxoindolin-1-yl)piperidine-2,6-dione]
11 | 3.4 | 16.3 | CNc1ccn(-c2ccnc3c2cc([C@H](C)N2CC=C(c4c(C)cc(C(=O)N5CCC(CN6CCN(Cc7cc8c(cc7F)N(C7CCC(=O)NC7=O)C(=O)C8(C)C)C[C@@H]6C)CC5)cc4F)CC2)n3C)c(=O)c1 (stereo partly drawn) [Example 3u181, 3-(6-fluoro-5-(((S)-4-((1-(3-fluoro-5-methyl-4-(1-((S)-1-(1-methyl-4-(4-(methyl-amino)-2-oxopyridin-1 (2H)-yl)-1H-pyrrolo[2,3-b]pyridin-2-yl)ethyl)-1,2,3,6-tetrahydropyridin-4-yl)-benzoyl)piperidin-4-yl)methyl)-3-methylpiperazin-1-yl)methyl)-3,3-dimethyl-2-oxoindolin-1-yl)-piperidine-2,6-dione]

Reference: patent publication US20250320206A1, “STAT6 DEGRADERS” (Gilead Sciences, Inc., priority 2024, published 2025)
